This is an account of results in patent publication US20110086889A1, “TETRAZOLE COMPOUNDS AS OREXIN RECEPTOR ANTAGONISTS” (priority 2009, published 2011).

One experiment concerns the target T1, human orexin-1 receptor (Homo sapiens, UniProt O43613).
T1 construct: expressed in transfected cells; host or cells: Chinese hamster ovary (CHO) cells, grown under G418 selection
T1 sequence (O43613 1-425): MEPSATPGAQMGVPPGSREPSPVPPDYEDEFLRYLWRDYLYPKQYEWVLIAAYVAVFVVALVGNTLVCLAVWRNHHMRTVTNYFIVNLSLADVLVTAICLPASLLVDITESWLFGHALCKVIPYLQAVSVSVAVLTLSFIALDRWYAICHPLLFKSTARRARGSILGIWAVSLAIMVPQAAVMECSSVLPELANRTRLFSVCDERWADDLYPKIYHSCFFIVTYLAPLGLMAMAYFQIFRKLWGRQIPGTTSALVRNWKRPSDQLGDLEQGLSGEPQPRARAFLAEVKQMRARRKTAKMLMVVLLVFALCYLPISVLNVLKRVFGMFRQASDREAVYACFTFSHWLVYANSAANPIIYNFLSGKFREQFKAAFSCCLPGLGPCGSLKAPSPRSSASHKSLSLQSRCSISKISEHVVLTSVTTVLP
In words: FLIPR calcium assay, orexin receptor antagonistic activity, CHO cells expressing the human orexin-1 receptor. The format is cell-based. The conditions noted are these: 3 nM orexin-A as agonist, some values geometric mean of n = 2 or 3, read-out: OX1 IC50. The method, then: (§1) The orexin receptor antagonistic activity of the compounds of formula (I) is determined in accordance with the following experimental method.
(§2) Chinese hamster ovary (CHO) cells expressing the human orexin-1 receptor and the human orexin-2 receptor, respectively, are grown in culture medium (Ham F-12 with L-Glutamine) containing 300 μg/ml G418, 100 U/ml penicillin, 100 μg/ml streptomycin and 10% heat inactivated fetal calf serum (FCS). The cells are seeded at 20,000 cells/well into 384-well black clear bottom sterile plates (Greiner). The seeded plates are incubated overnight at 37° C. in 5% CO2. Human orexin-A as an agonist is prepared as 1 mM stock solution in MeOH:water (1:1), diluted in HBSS containing 0.1% bovine serum albumin (BSA), NaHCO3: 0.375 g/l and 20 mM HEPES for use in the assay at a final concentration of 3 nM.
(§3) Antagonists are prepared as 10 mM stock solution in DMSO, then diluted in 384-well plates using DMSO followed by a transfer of the dilutions into in HBSS containing 0.1% bovine serum albumin (BSA), NaHCO3: 0.375 g/l and 20 mM HEPES. On the day of the assay, 50 μl of staining buffer (HBSS containing 1% FCS, 20 mM HEPES, NaHCO3: 0.375 g/l, 5 mM probenecid (Sigma) and 3 μM of the fluorescent calcium indicator fluo-4 AM (1 mM stock solution in DMSO, containing 10% pluronic) is added to each well. The 384-well cell-plates are incubated for 50 min at 37° C. in 5% CO2 followed by equilibration at r.t. for 30-120 min before measurement.
(§4) Within the Fluorescent Imaging Plate Reader (FLIPR Tetra, Molecular Devices), antagonists are added to the plate in a volume of 10 μl/well, incubated for 10 min and finally 10 μl/well of agonist is added. Fluorescence is measured for each well at 1 second intervals, and the height of each fluorescence peak is compared to the height of the fluorescence peak induced by 3 nM orexin-A with vehicle in place of antagonist. For each antagonist, the IC50 value (the concentration of compound needed to inhibit 50% of the agonistic response) is determined and may be normalized using the obtained IC50 value of a on-plate reference compound. Optimized conditions were achieved by adjustment of pipetting speed and cell splitting regime. The calculated IC50 values of the compounds may fluctuate depending on the daily cellular assay performance. Fluctuations of this kind are known to those skilled in the art.

In another experiment the target is T2, human orexin-2 receptor (Homo sapiens, UniProt O43614).
T2 construct: expressed in transfected cells; host or cells: Chinese hamster ovary (CHO) cells, grown under G418 selection
T2 sequence (O43614 1-444): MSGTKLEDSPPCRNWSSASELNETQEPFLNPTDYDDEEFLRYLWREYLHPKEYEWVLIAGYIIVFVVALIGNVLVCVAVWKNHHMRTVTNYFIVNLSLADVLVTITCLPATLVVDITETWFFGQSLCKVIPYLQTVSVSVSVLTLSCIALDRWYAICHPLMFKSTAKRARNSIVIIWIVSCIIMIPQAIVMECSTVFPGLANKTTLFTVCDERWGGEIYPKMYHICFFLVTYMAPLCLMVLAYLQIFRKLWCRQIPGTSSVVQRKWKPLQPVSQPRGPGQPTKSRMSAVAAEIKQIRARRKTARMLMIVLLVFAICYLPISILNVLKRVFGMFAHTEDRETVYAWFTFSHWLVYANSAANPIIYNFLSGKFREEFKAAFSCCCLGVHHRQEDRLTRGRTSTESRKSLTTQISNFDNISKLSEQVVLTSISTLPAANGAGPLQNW
In words: FLIPR calcium assay, orexin receptor antagonistic activity, CHO cells expressing the human orexin-2 receptor. It is filed as cell-based. The conditions noted are these: 3 nM orexin-A as agonist, some values geometric mean of n = 2 or 3, read-out: OX2 IC50. As to the method: as §1, §2, §3, §4

The conditions of experiment [1]: rat; cited from earlier work.
The conditions of experiment [2]: cited from earlier work.
For experiment [3] the following is noted: rat model; cited from earlier work.

Regarding `COc1ccc(-n2nnnc2SCC(=O)Nc2ccnn2Cc2ccc3c(c2)OCO3)c(OC)c1` [Example 62, N-(2-Benzo[1,3]dioxol-5-ylmethyl-2H-pyrazol-3-yl)-2-[1-(2,4-dimethoxy-phenyl)-1H-tetrazol-5-ylsulfanyl]-acetamide], the concentration for half-maximal inhibition (IC50) (as a rule, the midpoint of a concentration-inhibition curve) came out at 3440 nM on human orexin-1 receptor and 1800 nM at human orexin-2 receptor.
With `CNC(=O)[C@@H](c1ccccc1)N1CCc2cc(OC)c(OC)cc2[C@@H]1CCc1ccc(C(F)(F)F)cc1` [(2R)-2-{(1S)-6,7-dimethoxy-1-[2-(4-trifluoromethyl-phenyl)-ethyl]-3,4-dihydro-1H-isoquinolin-2-yl}-N-methyl-2-phenyl-acetamide], in experiment [1], the “alertness, characterized by active wake and locomotion” value is on record as “decrease alertness”; the “time spent in both REM and NREM sleep” value was “dose-dependently increase”. The “activity in a rat model of post-traumatic stress disorder” value in experiment [2] is listed as “active”. The memory function result in experiment [3] was “enhance memory function”.
In the case of `COc1ccc(Cn2nccc2NC(=O)CSc2nnnn2-c2cc(C)ccc2C)cc1` [Example 46, 2-[1-(2,5-Dimethyl-phenyl)-1H-tetrazol-5-ylsulfanyl]-N-[2-(4-methoxy-benzyl)-2H-pyrazol-3-yl]-acetamide], the concentration for half-maximal inhibition (IC50) on human orexin-1 receptor is 11 nM; on human orexin-2 receptor it was 6 nM.
For `COc1ccc(Cn2nccc2NC(=O)CSc2nnnn2-c2cccc(C)c2C)cc1` [Example 1, 2-[1-(2,3-Dimethyl-phenyl)-1H-tetrazol-5-ylsulfanyl]-N-[2-(4-methoxy-benzyl)-2H-pyrazol-3-yl]-acetamide] the same measures were 32 nM and 5 nM.
Taken in the same sequence, the figures for `Cc1cccc(-n2nnnc2SCC(=O)Nc2ccnn2-c2ccc(Oc3ccccc3)cc2)c1C` [Example 141, 2-[1-(2,3-Dimethyl-phenyl)-1H-tetrazol-5-ylsulfanyl]-N-[2-(4-phenoxy-phenyl)-2H-pyrazol-3-yl]-acetamide] were 85 nM and 19 nM.
Taken in the same sequence, the figures for `Cc1cc(NC(=O)CSc2nnnn2-c2cccc(C)c2C)n(-c2ccccc2)n1` [Example 154, 2-[1-(2,3-Dimethyl-phenyl)-1H-tetrazol-5-ylsulfanyl]-N-(5-methyl-2-phenyl-2H-pyrazol-3-yl)-acetamide] were 7250 nM and 654 nM.
As to `COc1ccc(Cn2nccc2NC(=O)CSc2nnnn2-c2cccc(C)c2C)cc1OC` [Example 10, N-[2-(3,4-Dimethoxy-benzyl)-2H-pyrazol-3-yl]-2-[1-(2,3-dimethyl-phenyl)-1H-tetrazol-5-ylsulfanyl]-acetamide], the IC50 at human orexin-1 receptor was 61 nM; at human orexin-2 receptor it was 89 nM.
Taken in the same sequence, the figures for `COc1ccc(Cn2nccc2NC(=O)CCc2nnnn2-c2cccc3ccccc23)cc1` [Example 115, N-[2-(4-Methoxy-benzyl)-2H-pyrazol-3-yl]-3-(1-naphthalen-1-yl-1H-tetrazol-5-yl)-propionamide] were 25 nM and 41 nM.
On to `COc1ccc(-n2nccc2NC(=O)CSc2nnnn2-c2cccc(C)c2C)cn1` [Example 147, 2-[1-(2,3-Dimethyl-phenyl)-1H-tetrazol-5-ylsulfanyl]-N-[2-(6-methoxy-pyridin-3-yl)-2H-pyrazol-3-yl]-acetamide], for which the IC50 on human orexin-1 receptor came out at 47 nM; on human orexin-2 receptor it was 8300 nM.
For `Cc1ccccc1Cn1nccc1NC(=O)CSc1nnnn1-c1cccc(C)c1C` [Example 22, 2-[1-(2,3-Dimethyl-phenyl)-1H-tetrazol-5-ylsulfanyl]-N-[2-(2-methyl-benzyl)-2H-pyrazol-3-yl]-acetamide] the same measures were 48 nM and 115 nM.
Taken in the same sequence, the figures for `CCC(C)Cn1nccc1NC(=O)CSc1nnnn1-c1cccc(C)c1C` (stereo not drawn) [Example 77, 2-[1-(2,3-Dimethyl-phenyl)-1H-tetrazol-5-ylsulfanyl]-N-[2-(2-methyl-butyl)-2H-pyrazol-3-yl]-acetamide] were 295 nM and 613 nM.
In the case of `COc1ccc(Cn2nccc2NC(=O)CSc2nnnn2-c2cccc(C)c2C)cc1C` [Example 2, 2-[1-(2,3-Dimethyl-phenyl)-1H-tetrazol-5-ylsulfanyl]-N-[2-(4-methoxy-3-methyl-benzyl)-2H-pyrazol-3-yl]-acetamide], the half-inhibitory concentration (IC50) at human orexin-1 receptor was 42 nM; on human orexin-2 receptor, 25 nM.
Taken in the same sequence, the figures for `Cc1cccc(-n2nnnc2SCC(=O)Nc2ccnn2CC2CC2)c1C` [Example 76, N-(2-Cyclopropylmethyl-2H-pyrazol-3-yl)-2-[1-(2,3-dimethyl-phenyl)-1H-tetrazol-5-ylsulfanyl]-acetamide] were 363 nM and 165 nM.
Taken in the same sequence, the figures for `COc1ccc(-n2nccc2NC(=O)CSc2nnnn2-c2c(Cl)cccc2Cl)cc1` [Example 152, 2-[1-(2,6-Dichloro-phenyl)-1H-tetrazol-5-ylsulfanyl]-N-[2-(4-methoxy-phenyl)-2H-pyrazol-3-yl]-acetamide] were 63 nM and 32 nM.
Taken in the same sequence, the figures for `Cc1cccc(-n2nnnc2SCC(=O)Nc2ccnn2CCCc2ccc(OC(F)(F)F)c(F)c2)c1C` [Example 85, 2-[1-(2,3-Dimethyl-phenyl)-1H-tetrazol-5-ylsulfanyl]-N-{2-[3-(3-fluoro-4-trifluoromethoxy-phenyl)-propyl]-2H-pyrazol-3-yl}-acetamide] were 1810 nM and 146 nM.
With `COc1ccc(-n2nccc2NC(=O)CCc2nnnn2-c2c(C)cc(C)cc2C)cc1` [Example 139, N-[2-(4-Methoxy-phenyl)-2H-pyrazol-3-yl]-3-[1-(2,4,6-trimethyl-phenyl)-1H-tetrazol-5-yl]-propionamide], the results for the IC50 at human orexin-1 receptor and on human orexin-2 receptor were 796 nM and 530 nM, respectively.
`Cc1ccc(C)c(-n2nnnc2SCC(=O)Nc2ccnn2CCc2ccccc2)c1` [Example 89, 2-[1-(2,5-Dimethyl-phenyl)-1H-tetrazol-5-ylsulfanyl]-N-(2-phenethyl-2H-pyrazol-3-yl)-acetamide]: the results for the IC50 on human orexin-1 receptor and at human orexin-2 receptor were 44 nM and 47 nM, respectively.
